Measurements reported in US6905716B2, “Propionic acid based preservative agent for animal and vegetable products” (TINE Norske Meierier BA, priority 2000, dated 2005).

Experiments:
grass = assay: Ensilage of grass in preserving jars, Example 4; conditions: laboratory silos
Method: The jars were stored in a climatic test chamber at 20° C. For the control without ensiling agent, water was added in a volume equivalent to 15 weight % FLP with and without bacteria. The additive of 40% weight FLP was added in an amount corresponding to 6 liters/tonne of grass. The FLP consisted of ¾ lactose and salts and ¼ organic acids (the ratio of propionic acid to lactic acid was 1:3). The agent with bacteria contained 8 log10 colony forming units of lactic acid bacteria per ml FLP and <8 log10 cfu propionic acid bacteria per ml FLP.

[1] = system: undesirable microorganisms; conditions: typically 0.1-0.5 g/l; potassium sorbate and/or sodium benzoate

O=CO [formic acid]
silage effluent, formic acid compared with addition of FLP (grass): More silage effluent

C/C=C/C=C/C(=O)[O-].[K+] [potassium sorbate]
risk of contamination by undesirable microorganisms during fermentation [1]: reduced the risk of contamination

O=C([O-])c1ccccc1.[Na+] [sodium benzoate]
risk of contamination by undesirable microorganisms during fermentation [1]: reduced the risk of contamination
